Results as given in the kinase profiling compilation of Christmann-Franck et al. (2016).

How the values were obtained:
Assay in all cases: KINOMEscan competition binding
Conditions in all cases: compound 0.5 µM
NUAK1 (human) = NUAK1 (human) (UniProt O60285)
NEK1 (human) = NEK1 (human) (UniProt Q96PY6)
BMPR1A (human) = BMPR1A (human) (UniProt P36894)
PIP4K2B (human) = PIP4K2B (human) (UniProt P78356)
[1] = tested on: RET (human), P07949 [V804L]
CDK3 (human) = CDK3 (human) (UniProt Q00526)
LIMK1 (human) = LIMK1 (human) (UniProt P53667)
PIK3C2B (human) = PIK3C2B (human) (UniProt O00750)
[2] = tested on: PIK3CA (human), P42336 [H1047Y]
RPS6KA1 KD1 (human) = RPS6KA1 KD1 (human) (UniProt Q15418)
CSNK2A2 (human) = CSNK2A2 (human) (UniProt P19784)
[3] = molecular target: JAK2 JH1 catalytic (human) (UniProt O60674)
MAPK7 (human) = MAPK7 (human) (UniProt Q13164)
CDK19 (human) = CDK19 (human) (UniProt Q9BWU1)
STK35 (human) = STK35 (human) (UniProt Q8TDR2)
TIE1 (human) = TIE1 (human) (UniProt P35590)
MARK4 (human) = MARK4 (human) (UniProt Q96L34)
NEK11 (human) = NEK11 (human) (UniProt Q8NG66)
PHKG1 (human) = PHKG1 (human) (UniProt Q16816)
MST4 (human) = MST4 (human) (UniProt Q9P289)
PAK3 (human) = PAK3 (human) (UniProt O75914)
MAP2K7 (human) = MAP2K7 (human) (UniProt O14733)
CHEK1 (human) = CHEK1 (human) (UniProt O14757)
TAOK2 (human) = TAOK2 (human) (UniProt Q9UL54)
ZAP70 (human) = ZAP70 (human) (UniProt P43403)
MAP4K4 (human) = MAP4K4 (human) (UniProt O95819)
PAK1 (human) = PAK1 (human) (UniProt Q13153)
PTK2 (human) = PTK2 (human) (UniProt Q05397)
PKN2 (human) = PKN2 (human) (UniProt Q16513)
NTRK2 (human) = NTRK2 (human) (UniProt Q16620)
LRRK2 (human) = LRRK2 (human) (UniProt Q5S007)
HIPK2 (human) = HIPK2 (human) (UniProt Q9H2X6)
CAMK2A (human) = CAMK2A (human) (UniProt Q9UQM7)
PRPF4B (human) = PRPF4B (human) (UniProt Q13523)
PKN3 (M.tuberculosis) = PKN3 (M.tuberculosis) (UniProt Q6P5Z2)
SIK1 (human) = SIK1 (human) (UniProt P57059)
PRKD3 (human) = PRKD3 (human) (UniProt O94806)
CDK15 (human) = CDK15 (human) (UniProt Q96Q40)
RPS6KA4 KD2 (human) = RPS6KA4 KD2 (human) (UniProt O75676)
STK17B (human) = STK17B (human) (UniProt O94768)
ADCK4 (human) = ADCK4 (human) (UniProt Q96D53)

Chain of CDK19 (human) (Q9BWU1 whole entry, looked up): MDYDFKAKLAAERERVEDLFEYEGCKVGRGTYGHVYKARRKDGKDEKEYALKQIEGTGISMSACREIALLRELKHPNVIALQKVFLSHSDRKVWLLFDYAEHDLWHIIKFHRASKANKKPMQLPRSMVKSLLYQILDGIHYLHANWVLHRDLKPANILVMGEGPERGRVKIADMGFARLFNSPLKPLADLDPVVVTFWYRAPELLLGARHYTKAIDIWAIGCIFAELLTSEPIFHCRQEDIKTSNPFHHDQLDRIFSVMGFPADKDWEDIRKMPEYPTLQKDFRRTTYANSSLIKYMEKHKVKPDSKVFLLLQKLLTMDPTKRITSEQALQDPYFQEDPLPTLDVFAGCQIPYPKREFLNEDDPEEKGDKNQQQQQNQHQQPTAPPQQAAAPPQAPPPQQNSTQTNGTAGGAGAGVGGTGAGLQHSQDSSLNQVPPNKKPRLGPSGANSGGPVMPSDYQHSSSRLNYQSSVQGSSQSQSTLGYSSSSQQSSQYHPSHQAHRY
Chain of PRPF4B (human) (Q13523 whole entry, looked up): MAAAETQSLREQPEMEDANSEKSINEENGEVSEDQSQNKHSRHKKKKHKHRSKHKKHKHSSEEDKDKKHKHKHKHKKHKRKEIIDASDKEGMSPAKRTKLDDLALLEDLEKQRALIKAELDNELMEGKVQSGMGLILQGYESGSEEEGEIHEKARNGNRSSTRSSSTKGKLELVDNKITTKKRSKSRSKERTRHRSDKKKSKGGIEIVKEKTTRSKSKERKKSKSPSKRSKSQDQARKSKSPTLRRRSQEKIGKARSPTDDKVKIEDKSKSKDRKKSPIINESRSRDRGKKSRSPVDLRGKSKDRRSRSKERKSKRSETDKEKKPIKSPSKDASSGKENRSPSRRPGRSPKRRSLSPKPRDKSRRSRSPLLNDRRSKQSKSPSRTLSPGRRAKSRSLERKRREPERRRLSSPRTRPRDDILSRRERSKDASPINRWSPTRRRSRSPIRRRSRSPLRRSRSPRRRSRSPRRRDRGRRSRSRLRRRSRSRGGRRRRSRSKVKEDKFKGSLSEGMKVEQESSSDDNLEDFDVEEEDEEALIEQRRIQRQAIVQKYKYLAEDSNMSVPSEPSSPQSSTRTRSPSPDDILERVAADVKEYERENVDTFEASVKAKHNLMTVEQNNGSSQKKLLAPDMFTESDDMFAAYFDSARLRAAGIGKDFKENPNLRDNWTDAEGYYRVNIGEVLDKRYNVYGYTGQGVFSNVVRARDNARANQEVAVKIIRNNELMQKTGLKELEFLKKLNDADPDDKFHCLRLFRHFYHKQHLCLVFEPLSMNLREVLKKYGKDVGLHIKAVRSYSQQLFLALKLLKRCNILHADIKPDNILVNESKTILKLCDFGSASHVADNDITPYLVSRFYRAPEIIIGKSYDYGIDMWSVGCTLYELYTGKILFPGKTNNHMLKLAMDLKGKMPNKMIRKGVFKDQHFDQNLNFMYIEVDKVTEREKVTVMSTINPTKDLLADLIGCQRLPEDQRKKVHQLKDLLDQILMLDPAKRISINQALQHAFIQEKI
Chain of ZAP70 (human) (P43403 whole entry, looked up): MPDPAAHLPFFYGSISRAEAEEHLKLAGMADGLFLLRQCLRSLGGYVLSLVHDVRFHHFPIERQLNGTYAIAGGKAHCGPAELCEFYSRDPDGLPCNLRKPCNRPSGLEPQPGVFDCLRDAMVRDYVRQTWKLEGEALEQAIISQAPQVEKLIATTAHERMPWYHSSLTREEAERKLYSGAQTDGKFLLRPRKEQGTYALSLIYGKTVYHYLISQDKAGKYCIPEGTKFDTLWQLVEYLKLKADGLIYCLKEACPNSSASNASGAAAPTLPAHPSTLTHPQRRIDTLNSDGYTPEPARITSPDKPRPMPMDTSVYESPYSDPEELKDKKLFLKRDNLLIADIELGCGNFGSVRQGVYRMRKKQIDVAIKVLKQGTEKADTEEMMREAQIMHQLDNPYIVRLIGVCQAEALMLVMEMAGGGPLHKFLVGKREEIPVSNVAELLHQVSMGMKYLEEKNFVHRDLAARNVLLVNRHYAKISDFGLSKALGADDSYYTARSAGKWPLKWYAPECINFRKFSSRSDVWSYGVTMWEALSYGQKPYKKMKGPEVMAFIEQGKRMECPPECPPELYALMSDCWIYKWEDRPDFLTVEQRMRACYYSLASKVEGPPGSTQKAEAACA
Chain of BMPR1A (human) (P36894 whole entry, looked up): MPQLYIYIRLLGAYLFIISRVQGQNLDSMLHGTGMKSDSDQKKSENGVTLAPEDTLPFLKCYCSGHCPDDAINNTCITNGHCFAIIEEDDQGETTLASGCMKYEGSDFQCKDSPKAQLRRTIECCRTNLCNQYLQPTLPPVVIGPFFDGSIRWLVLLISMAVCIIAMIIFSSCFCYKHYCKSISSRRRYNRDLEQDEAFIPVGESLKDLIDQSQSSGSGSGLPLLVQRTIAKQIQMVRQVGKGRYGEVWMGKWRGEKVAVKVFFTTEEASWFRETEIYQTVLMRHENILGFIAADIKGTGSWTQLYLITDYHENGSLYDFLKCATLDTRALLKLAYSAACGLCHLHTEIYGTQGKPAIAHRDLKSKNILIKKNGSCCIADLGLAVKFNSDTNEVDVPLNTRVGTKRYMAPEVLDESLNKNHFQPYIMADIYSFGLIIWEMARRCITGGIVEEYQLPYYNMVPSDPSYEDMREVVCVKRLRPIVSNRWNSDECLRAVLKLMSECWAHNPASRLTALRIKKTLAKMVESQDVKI
Chain of TIE1 (human) (P35590 whole entry, looked up): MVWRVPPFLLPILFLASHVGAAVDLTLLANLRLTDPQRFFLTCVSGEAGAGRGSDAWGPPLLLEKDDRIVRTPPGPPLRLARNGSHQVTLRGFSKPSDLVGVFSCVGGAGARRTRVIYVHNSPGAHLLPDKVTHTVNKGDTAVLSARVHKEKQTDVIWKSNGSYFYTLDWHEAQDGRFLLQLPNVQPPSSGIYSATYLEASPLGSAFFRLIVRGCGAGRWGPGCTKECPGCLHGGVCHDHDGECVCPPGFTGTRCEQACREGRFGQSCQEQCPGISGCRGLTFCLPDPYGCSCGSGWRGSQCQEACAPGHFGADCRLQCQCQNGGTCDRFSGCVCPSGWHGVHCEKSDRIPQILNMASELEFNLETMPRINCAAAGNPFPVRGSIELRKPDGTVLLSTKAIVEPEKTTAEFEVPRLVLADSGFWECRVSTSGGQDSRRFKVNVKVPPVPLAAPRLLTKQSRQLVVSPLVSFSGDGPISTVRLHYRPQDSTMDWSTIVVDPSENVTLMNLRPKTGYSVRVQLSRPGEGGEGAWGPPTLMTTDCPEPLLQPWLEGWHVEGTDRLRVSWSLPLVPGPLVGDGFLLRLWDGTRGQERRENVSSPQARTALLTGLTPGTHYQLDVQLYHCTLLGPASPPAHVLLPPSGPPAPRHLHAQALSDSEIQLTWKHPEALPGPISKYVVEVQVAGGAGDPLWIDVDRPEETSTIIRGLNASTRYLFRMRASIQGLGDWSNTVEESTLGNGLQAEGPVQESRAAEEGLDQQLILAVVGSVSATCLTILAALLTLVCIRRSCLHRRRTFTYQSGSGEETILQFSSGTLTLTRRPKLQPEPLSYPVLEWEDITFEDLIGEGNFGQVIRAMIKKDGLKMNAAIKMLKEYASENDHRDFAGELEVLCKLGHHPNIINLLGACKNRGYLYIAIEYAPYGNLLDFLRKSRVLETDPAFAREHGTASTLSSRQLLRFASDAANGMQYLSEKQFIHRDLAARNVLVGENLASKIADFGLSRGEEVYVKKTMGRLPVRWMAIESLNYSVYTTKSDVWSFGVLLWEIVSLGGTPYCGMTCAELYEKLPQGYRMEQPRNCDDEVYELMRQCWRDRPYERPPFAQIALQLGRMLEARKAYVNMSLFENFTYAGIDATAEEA
Chain of MAP2K7 (human) (O14733 whole entry, looked up): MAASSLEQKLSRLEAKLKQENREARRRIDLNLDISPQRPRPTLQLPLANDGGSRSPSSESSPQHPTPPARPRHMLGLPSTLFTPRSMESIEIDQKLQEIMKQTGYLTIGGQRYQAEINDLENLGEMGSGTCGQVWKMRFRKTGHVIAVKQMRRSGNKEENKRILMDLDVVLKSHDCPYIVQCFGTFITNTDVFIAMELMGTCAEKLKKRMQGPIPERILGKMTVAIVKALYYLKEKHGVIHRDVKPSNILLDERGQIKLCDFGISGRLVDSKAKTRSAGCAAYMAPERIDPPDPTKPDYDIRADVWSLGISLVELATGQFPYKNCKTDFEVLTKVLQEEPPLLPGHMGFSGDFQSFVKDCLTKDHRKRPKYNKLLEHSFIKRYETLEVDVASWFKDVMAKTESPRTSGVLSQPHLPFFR
Chain of CSNK2A2 (human) (P19784 whole entry, looked up): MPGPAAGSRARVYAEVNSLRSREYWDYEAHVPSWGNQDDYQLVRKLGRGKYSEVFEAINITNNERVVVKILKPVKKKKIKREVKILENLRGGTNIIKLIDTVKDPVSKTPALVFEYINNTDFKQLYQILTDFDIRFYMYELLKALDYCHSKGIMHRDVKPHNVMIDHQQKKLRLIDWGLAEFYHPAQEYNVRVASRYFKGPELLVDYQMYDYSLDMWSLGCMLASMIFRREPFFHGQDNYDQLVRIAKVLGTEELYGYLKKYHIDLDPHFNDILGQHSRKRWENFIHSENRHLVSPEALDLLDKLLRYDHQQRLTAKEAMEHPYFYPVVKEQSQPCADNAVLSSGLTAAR
Chain of PIP4K2B (human) (P78356 whole entry, looked up): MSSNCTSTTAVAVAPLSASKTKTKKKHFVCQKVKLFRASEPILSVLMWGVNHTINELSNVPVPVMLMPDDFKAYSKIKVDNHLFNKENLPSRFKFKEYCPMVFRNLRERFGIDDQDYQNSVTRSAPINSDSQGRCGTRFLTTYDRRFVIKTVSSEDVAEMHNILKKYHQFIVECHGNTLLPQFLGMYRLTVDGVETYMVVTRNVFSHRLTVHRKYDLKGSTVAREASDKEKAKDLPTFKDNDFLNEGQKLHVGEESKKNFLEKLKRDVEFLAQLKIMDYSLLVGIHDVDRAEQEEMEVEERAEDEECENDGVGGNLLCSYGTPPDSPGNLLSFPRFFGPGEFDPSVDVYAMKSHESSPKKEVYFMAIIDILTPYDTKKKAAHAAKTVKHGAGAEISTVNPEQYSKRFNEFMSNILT

Structure (SMILES): Cn1c2ccccc2c2c3c(c4c5ccccc5n(CCC#N)c4c21)CNC3=O
- kinase still bound, per cent of control (NUAK1 (human)): 89%
- kinase still bound, per cent of control (NEK1 (human)): 99%
- kinase still bound, per cent of control (BMPR1A (human)): 73%
- kinase still bound, per cent of control (PIP4K2B (human)): 2%
- kinase still bound, per cent of control [1]: 0.1%
- kinase still bound, per cent of control (CDK3 (human)): 75%
- kinase still bound, per cent of control (LIMK1 (human)): 96%
- kinase still bound, per cent of control (PIK3C2B (human)): 100%
- kinase still bound, per cent of control [2]: 100%
- kinase still bound, per cent of control (RPS6KA1 KD1 (human)): 36%
- kinase still bound, per cent of control (CSNK2A2 (human)): 65%
- kinase still bound, per cent of control [3]: 0.2%
- kinase still bound, per cent of control (MAPK7 (human)): 0.1%
- kinase still bound, per cent of control (CDK19 (human)): 91%
- kinase still bound, per cent of control (STK35 (human)): 73%
- kinase still bound, per cent of control (TIE1 (human)): 100%
- kinase still bound, per cent of control (MARK4 (human)): 72%
- kinase still bound, per cent of control (NEK11 (human)): 100%
- kinase still bound, per cent of control (PHKG1 (human)): 0.1%
- kinase still bound, per cent of control (MST4 (human)): 100%
- kinase still bound, per cent of control (PAK3 (human)): 70%
- kinase still bound, per cent of control (MAP2K7 (human)): 79%
- kinase still bound, per cent of control (CHEK1 (human)): 0.2%
- kinase still bound, per cent of control (TAOK2 (human)): 7.7%
- kinase still bound, per cent of control (ZAP70 (human)): 35%
- kinase still bound, per cent of control (MAP4K4 (human)): 2.2%
- kinase still bound, per cent of control (PAK1 (human)): 84%
- kinase still bound, per cent of control (PTK2 (human)): 73%
- kinase still bound, per cent of control (PKN2 (human)): 12%
- kinase still bound, per cent of control (NTRK2 (human)): 1.2%
- kinase still bound, per cent of control (LRRK2 (human)): 19%
- kinase still bound, per cent of control (HIPK2 (human)): 15%
- kinase still bound, per cent of control (CAMK2A (human)): 27%
- kinase still bound, per cent of control (PRPF4B (human)): 12%
- kinase still bound, per cent of control (PKN3 (M.tuberculosis)): 100%
- kinase still bound, per cent of control (SIK1 (human)): 83%
- kinase still bound, per cent of control (PRKD3 (human)): 2.8%
- kinase still bound, per cent of control (CDK15 (human)): 100%
- kinase still bound, per cent of control (RPS6KA4 KD2 (human)): 100%
- kinase still bound, per cent of control (STK17B (human)): 100%
- kinase still bound, per cent of control (ADCK4 (human)): 93%
